Article PMC7764916, “The Cholinesterase Inhibitory Properties of Stephaniae Tetrandrae Radix” (Molecules, 2020)
Read-outs that look alike come from different tables or passages of the source.

How the values were obtained:
[1] = biological target: T1, BChE (Mus musculus, UniProt Q03311); assay: BChE activity assay (Ellman method), mouse serum; type: biochemical; conditions: for IC50: alkaloids, Figure 3B; for BChE inhibitory activity (in words): Figure 3
T1 construct: the brain lysate and iso-OMPA were replaced with diluted serum solution and 0.1 μM BW284c51; from tissue; host or cells: mouse serum (diluted 1:50)
T1 sequence (Q03311 30-603): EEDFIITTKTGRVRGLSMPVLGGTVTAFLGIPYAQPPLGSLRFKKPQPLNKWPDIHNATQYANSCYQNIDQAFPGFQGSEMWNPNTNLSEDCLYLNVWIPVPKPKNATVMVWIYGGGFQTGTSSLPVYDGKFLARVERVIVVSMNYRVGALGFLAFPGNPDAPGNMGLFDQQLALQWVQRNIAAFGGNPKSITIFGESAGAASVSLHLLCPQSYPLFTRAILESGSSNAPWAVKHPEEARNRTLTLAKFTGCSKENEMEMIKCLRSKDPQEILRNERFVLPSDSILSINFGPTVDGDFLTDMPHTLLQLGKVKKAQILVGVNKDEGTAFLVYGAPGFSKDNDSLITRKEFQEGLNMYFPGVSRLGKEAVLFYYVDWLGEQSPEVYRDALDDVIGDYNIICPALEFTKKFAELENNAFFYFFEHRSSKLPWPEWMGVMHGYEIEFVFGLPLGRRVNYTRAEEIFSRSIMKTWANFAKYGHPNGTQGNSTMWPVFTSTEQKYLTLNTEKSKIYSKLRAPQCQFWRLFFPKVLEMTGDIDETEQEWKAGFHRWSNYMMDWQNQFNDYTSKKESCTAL
Procedure: Mouse serum (1: 50 v/v, diluted with precooled low-salt lysis buffer) was prepared for the BChE activity assay. The BChE assay medium consisted of the same composition as the AChE assay medium, except that the brain lysate and iso-OMPA were replaced with diluted serum solution and 0.1 μM BW284c51. The mixture of diluted serum, Na2HPO4 buffer, and BW284c51 solution was incubated at 37 °C for 10 min, and then the solutions of DNTB and ATCh were added. […] The concentration of DMSO in the reaction system of AChE/BChE assay was controlled at 0.5%. […] The AChE/BChE inhibitory activity of drugs was calculated as a percentage of the control absorbance value, AChE/BChE inhibition (%) = (1 − absorbance with inhibitor/absorbance without inhibitor) × 100%. […] The protein concentrations were measured using the Bio-Rad Protein Assay kit (Hercules, CA, USA).

[2] = biological target: T2, AChE (Mus musculus, UniProt P21836); assay: Enzyme kinetic analysis of AChE inhibition (Lineweaver–Burk plots); type: biochemical; conditions: for type of AChE inhibition: Lineweaver–Burk plots; for Ki: estimated from Lineweaver–Burk plots, ATCh 0.040–0.625 mM
T2 construct: The AChE assay medium consisted of brain lysate (5 mg/mL) with testing drugs; from tissue; host or cells: mouse brain (Triton X-100 low-salt lysate)
T2 sequence (P21836 32-614): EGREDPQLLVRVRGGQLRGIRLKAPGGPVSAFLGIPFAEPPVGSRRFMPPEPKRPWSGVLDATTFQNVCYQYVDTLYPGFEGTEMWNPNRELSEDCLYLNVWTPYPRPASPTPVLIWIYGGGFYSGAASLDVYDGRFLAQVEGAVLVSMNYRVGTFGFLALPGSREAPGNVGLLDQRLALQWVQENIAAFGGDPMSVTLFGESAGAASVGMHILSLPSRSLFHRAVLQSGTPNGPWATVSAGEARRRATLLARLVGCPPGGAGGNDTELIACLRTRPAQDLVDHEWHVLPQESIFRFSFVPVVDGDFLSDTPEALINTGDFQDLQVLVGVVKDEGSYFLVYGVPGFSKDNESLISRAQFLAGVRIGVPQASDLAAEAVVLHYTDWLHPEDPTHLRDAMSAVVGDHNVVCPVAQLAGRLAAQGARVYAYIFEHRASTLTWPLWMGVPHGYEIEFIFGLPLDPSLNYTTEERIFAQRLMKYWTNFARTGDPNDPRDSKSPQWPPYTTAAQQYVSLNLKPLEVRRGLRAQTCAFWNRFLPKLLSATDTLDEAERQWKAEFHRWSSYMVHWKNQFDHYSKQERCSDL
Procedure: Figure 4 The enzyme kinetic analysis of AChE inhibition by fangchinoline and cyclanoline. Different doses of fangchinoline (0.5–5 μM) and cyclanoline (30–120 μM) were added to the AChE reaction system and preincubated at 37 °C with the brain lysate, followed by the addition of a range of doses of ATCh (0.040–0.625 mM). The inhibition constants Ki were estimated from the plots of the slope versus the concentration of tested drugs. Donepezil (25 nM) served as a positive control. The data are expressed as the mean ± SEM (standard error of mean) of three […] assays, each with triplicate samples.
The Michaelis constant (Km), maximum velocity (Vmax), and inhibitory constant (Ki) were used to evaluate the kinetics of fangchinoline and cyclanoline. Lineweaver–Burk plots were then plotted using initial velocities, from which the Km and Vmax values were calculated (the absolute values of horizontal and vertical intercepts were 1/Km and 1/Vmax, respectively). The slopes of reciprocal plots were then plotted against the doses of fangchinoline and cyclanoline, and Ki values were determined as the absolute value of the x-axis intercept. Donepezil was used as a positive control. All experiments were performed in triplicate.

[3] = biological target: T2, AChE; assay: biochemical
Procedure: The extracts and alkaloids of STR were tested for cholinesterase activity using a 96-well microtiter plate (Corning, NY, USA) with a final volume of 200 μL, according to the Ellman method. […] The mixture of brain lysate, Na2HPO4 buffer, and iso-OMPA solution was incubated at 37 °C for 10 min, and then the solutions of DNTB and ATCh were added.
Mouse serum (1: 50 v/v, diluted with precooled low-salt lysis buffer) was prepared for the BChE activity assay. The BChE assay medium consisted of the same composition as the AChE assay medium, except that the brain lysate and iso-OMPA were replaced with diluted serum solution and 0.1 μM BW284c51. The mixture of diluted serum, Na2HPO4 buffer, and BW284c51 solution was incubated at 37 °C for 10 min, and then the solutions of DNTB and ATCh were added. […] The concentration of DMSO in the reaction system of AChE/BChE assay was controlled at 0.5%. […] The protein concentrations were measured using the Bio-Rad Protein Assay kit (Hercules, CA, USA).

[4] = alkaloids, Figure 3B, read-out: AChE IC50

For `COc1ccc2c3c1O[C@H]1C[C@@H](O)C=C[C@@]31CCN(C)C2` [Galanthamine, galanthamine, reference compound], the IC50 [1] was 49.8 ± 2.5 µM.
With `COc1cc2c(cc1O)[C@@H]1Cc3ccc(OC)c(O)c3C[N@+]1(C)CC2` [cyclanoline] the “type of AChE inhibition” value [2] was “noncompetitive”, the Ki [2] was 72.3 µM and the IC50 [3, 4] was 106 ± 2.29 µM. It also gave an IC50 [1] of 247 ± 5.46 µM.
`COc1ccc2cc1Oc1ccc(cc1)C[C@H]1c3cc(c(OC)cc3CCN1C)Oc1c(O)c(OC)cc3c1[C@H](C2)N(C)CC3` [fangchinoline] was tested, and the “type of AChE inhibition” value [2] was “noncompetitive”, the Ki [2] was 1.79 µM and the IC50 ([3]; Figure 5A, ATCh 0.625 mM, read-out: AChE IC50 (single drug, synergy experiment)) was 2.12 ± 0.16 µM. The IC50 [3, 4] was 2.58 ± 0.28 µM and the “BChE inhibitory activity (in words)” value [1] was “no inhibitory activity on BChE”.
In the case of `COc1ccc2cc1Oc1ccc(cc1)C[C@H]1c3cc(c(OC)cc3CCN1C)Oc1c(OC)c(OC)cc3c1[C@H](C2)N(C)CC3` [tetrandrine], the “AChE inhibitory activity (in words)” value ([3]; Figure 3) is reported as “no inhibitory activity on AChE at the maximal dissolvable concentration” and the “BChE inhibitory activity (in words)” value [1] is reported as “no or little inhibitory activity on BChE”.
